From US12318435B2, “Recombinant protein produced from cholinesterase gene derived from Pseudomonas aeruginosa and the composition comprising the same for treating or preventing a neurological disease” (priority 2019, dated 2025)

Assays:
Assay type in all cases: in vivo
ICR mice = assay: Survival rate in pesticide-exposed animal model; settings: female ICR mice, intraperitoneal; 250 μg NP protein, 30 μg carbofuran, 9 mg trichlorfon; NP 40 mins before pesticide; survival observed for 30 mins
Protocol: In order to determine the survival rate of the inventive NP protein on pesticide-exposed animal model, following test was performed by the procedure disclosed in the literature (Gupta, Ramesh C., ‘Carbofuran toxicity’, Journal of Toxicology and Environmental Health, Part A, 43:4, pp 383-418, 1994).
(§1) Specific pathogen-free female ICR mice (about 20 g, aged 6 weeks) were purchased from ORIENT Co. (Seoul, Korea) and acclimated with the experimental environment for 1 week.
250 μg of NP protein was intraperitoneally injected to the mice as a test sample group to observe the behavior of the mice for 40 mins and 30 μg of carbofuran and 9 mg of trichlorfon were intraperitoneally injected to the mice to observe the survival rate of the mice for 30 mins.
The group intraperitoneally injected with only 30 μg of carbofuran or 9 mg of trichlorfon were used as positive control groups to observe the survival rate of the mice and the group intraperitoneally injected with only distilled water […] was used as a negative control group to observe the survival rate of the mice.

choline = assay: Blood level of choline in pesticide-exposed animal model; settings: serum of the mice of Experimental Example 2; for Level of blood acetylcholine, Concentration: absorbance 570 nm
Protocol: In order to determine the effect on the blood level of choline of the inventive NP protein in pesticide-exposed animal model, following test was performed by the procedure disclosed in the literature (Choline/Acetylcholine Quantification Colorimetric/Fluorometric Kit, Biovision incorporated 155 S Milpitas Boulevard, Milpitas, Calif. 95035 USA).
as §1
(§2) The mice used in Experimental Example 2 intraperitoneally injected with […] of NP protein as a test sample group, were killed with carbon dioxide gas (Shinyang Oxygen Industry, Korea) and the blood was collected from the heart to isolate the serum.
The choline level of blood serum was determined Choline/Acetylcholine Quantification Colorimetric/Fluorometric Kit (Cat. No. K615-100, Biovision).
1 μL of serum was added to 49 μL of buffer solution in the kit and the reaction mixture containing […] of buffer solution, 2 μL of choline probe, 2 μL of ACHE and 2 μL of enzyme mixture solution was added thereto to react together in the shadow at 25° C. for 30 mins.
30 mins after the reaction, the absorbance of the reaction solution was determined at 570 nm using by spectrometer (Multiskan Go., Thermo Scientific) and the determined level was transformed into absolute value by comparing with the level of standard curve.
The level of choline was calculated according to following Math. 1 Blood Level of choline(nmole/mL or micromole)=(calculated level of choline through standard curve)/(the amount of samples in each well;mL). [Math. 1] 3-2. Test Result

ACHE activity = assay: Serum ACHE activity of pesticide-exposed mice; settings: serum of the mice of Experimental Example 2; for ACHE activity, Concentration (mU/mL): 25° C., 570 nm
Protocol: as §1, §2
30 mins after the reaction, the absorbance of the reaction solution was determined at every 1 min at 570 nm using by spectrometer (Multiskan Go., Thermo Scientific) and the determined level was calculated according to following Math. […] [Math. 2] 4-2. Test Result

Compound	Survival rate (%) (ICR mice)	amount of acetylcholine (in words) (choline)	Level of blood acetylcholine, Concentration (choline) [nmol/mL]	ACHE activity compared with negative control group (in words) (ACHE activity)	ACHE activity, Concentration (mU/mL) (ACHE activity)
COP(=O)(OC)C(O)C(Cl)(Cl)Cl (stereo not shown) [Trichlorfon, trichlorfon]	60	sharply increased amount of acetylcholine	1.4	decreased ACHE activity	117.7
CNC(=O)Oc1cccc2c1OC(C)(C)C2 [Carbofuran]	0	sharply increased amount of acetylcholine	1.8	decreased ACHE activity	463.8
